Measurements taken from ChEMBL document CHEMBL5308504, “Tm Shift (DSF) assay results for EUbOPEN Chemogenomics Library” (2023).
Values joined by “and” are separate entries in the source; they are usually repeats but may differ in a detail not shown here. Equal values may be shown once.

What was measured:
Peregrin (Homo sapiens) = target: T1, Peregrin (Homo sapiens) (UniProt P55201); conditions: Compound concentration 20.0 uM, Protein concentration 2.0 uM, Result type QC Liability
T1 sequence (whole entry): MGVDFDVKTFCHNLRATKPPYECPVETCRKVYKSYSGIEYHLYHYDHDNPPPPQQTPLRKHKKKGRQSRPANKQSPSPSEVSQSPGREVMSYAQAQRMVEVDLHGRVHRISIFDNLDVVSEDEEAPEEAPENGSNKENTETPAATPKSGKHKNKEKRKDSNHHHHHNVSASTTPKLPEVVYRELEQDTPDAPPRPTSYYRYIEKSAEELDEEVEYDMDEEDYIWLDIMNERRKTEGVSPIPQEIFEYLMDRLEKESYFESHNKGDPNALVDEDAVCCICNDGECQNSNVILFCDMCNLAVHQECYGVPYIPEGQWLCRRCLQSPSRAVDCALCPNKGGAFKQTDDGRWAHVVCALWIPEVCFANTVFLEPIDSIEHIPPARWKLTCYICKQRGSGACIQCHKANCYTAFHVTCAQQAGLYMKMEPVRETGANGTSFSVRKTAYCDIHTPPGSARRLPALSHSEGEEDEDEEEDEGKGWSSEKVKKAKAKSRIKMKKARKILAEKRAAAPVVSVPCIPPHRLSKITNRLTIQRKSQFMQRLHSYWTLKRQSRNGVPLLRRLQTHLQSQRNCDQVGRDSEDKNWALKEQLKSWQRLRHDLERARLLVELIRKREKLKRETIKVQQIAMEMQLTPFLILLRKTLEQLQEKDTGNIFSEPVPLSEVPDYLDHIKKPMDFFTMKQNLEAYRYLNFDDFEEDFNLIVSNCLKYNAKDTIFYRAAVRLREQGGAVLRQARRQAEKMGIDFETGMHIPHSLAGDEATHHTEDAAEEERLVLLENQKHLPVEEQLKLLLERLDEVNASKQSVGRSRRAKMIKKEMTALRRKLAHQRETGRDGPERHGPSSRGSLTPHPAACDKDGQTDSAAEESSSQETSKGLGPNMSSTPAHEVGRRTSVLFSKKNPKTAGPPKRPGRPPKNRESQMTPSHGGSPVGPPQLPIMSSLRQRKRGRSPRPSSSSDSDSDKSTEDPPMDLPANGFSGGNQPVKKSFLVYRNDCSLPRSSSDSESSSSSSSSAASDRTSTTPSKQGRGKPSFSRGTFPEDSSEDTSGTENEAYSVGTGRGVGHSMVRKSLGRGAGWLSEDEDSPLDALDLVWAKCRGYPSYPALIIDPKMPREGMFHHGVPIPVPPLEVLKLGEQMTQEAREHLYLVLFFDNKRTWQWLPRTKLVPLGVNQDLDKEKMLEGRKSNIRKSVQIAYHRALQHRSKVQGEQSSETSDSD

[1] = target: Fibroblast growth factor receptor 3 (Homo sapiens) (UniProt P22607); conditions: Compound concentration 20.0 uM, Protein concentration 2.0 uM, Result type QC Liability
Fibroblast growth factor receptor 3 (Homo sapiens), sequence (P22607 23-806 limits assumed): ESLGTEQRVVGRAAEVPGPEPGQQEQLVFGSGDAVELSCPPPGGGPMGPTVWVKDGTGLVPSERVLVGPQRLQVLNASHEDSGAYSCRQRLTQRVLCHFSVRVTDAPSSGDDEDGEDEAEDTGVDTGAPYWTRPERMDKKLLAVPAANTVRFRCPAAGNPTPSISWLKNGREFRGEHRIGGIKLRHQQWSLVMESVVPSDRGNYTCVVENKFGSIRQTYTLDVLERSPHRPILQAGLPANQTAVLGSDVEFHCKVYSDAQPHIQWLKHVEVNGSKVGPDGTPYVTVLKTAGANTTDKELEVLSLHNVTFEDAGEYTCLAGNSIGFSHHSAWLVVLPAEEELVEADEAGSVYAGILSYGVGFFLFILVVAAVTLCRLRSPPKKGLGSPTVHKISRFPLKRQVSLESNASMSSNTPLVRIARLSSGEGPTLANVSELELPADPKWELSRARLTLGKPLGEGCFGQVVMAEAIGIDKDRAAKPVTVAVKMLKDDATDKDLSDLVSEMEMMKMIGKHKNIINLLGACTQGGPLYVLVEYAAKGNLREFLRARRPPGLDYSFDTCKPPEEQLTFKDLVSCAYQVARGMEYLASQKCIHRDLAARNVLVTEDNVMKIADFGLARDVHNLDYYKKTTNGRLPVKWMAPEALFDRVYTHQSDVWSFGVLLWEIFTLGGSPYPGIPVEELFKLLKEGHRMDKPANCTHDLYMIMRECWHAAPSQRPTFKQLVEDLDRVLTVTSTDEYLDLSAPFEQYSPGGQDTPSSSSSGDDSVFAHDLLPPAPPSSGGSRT

| Structure (SMILES) | ΔTm (Peregrin (Homo sapiens)) | ΔTm [1] |
| --- | --- | --- |
| CC(C)c1cnn2c(NCc3ccccc3)cc(NCCCCCCN)nc12 | -0.13 °C | 0.86 °C |
| COc1cc(-c2nn([C@H]3CC[C@H](N4CCN(C(C)=O)CC4)CC3)c3ncnc(N)c23)ccc1NC(=O)c1cc2ccccc2n1C | -2.71 °C | 0.83 °C |
| CNc1oc(-c2cccc3ccccc23)nc1C#N | -2.17 °C | 0.61 °C |
| COc1ccc(C(F)(F)F)cc1NC(=O)Nc1ccc(Oc2cc(C)nc(N)n2)c2ccccc12 | 1.59 °C | 2.41 °C |
| CN1C(=O)Cc2ccc(-c3ccc(C[C@@H](C#N)NC(=O)[C@@H]4N[C@H]5CC[C@@H]4C5)c(F)c3)cc21 | 1.91 °C | 0.66 °C |
| CC(C)(C)OC(=O)CN1C(=O)c2c(OCC(=O)O)cccc2Oc2ccc(C(F)(F)F)cc21 | -3.16 °C | 0.75 °C |
| Cc1[nH]nc(C(F)(F)F)c1Cc1sc2c(c1C(=O)N1C[C@](C)(O)CO1)c(=O)n(C)c(=O)n2C(C)C | -1.85 °C | 0.52 °C |
| CC(C)(C)c1cc(NC(=O)c2csc(Nc3ccc(Cl)cc3)n2)no1 | -0.02 °C | 1.46 °C |
| O=C1CCC(N2Cc3cc(CNC(=O)C(F)(F)c4ccc(Cl)cc4)ccc3C2=O)C(=O)N1 (stereo not given) | -1.67 °C | 0.44 °C |
| C[C@H]1CN(C2COC2)CCN1c1ccc(Nc2cc(-c3ccnc(N4CCn5c(cc6c5CC(C)(C)C6)C4=O)c3CO)cn(C)c2=O)nc1 | -2.12 °C | 4.28 °C |
| NCc1ccc(OCCCc2sc(-c3ccc4c(c3)/C(=N/Nc3nc5ccccc5s3)CCC4)nc2C(=O)O)cc1 | -3.06 °C | 0.58 °C |
| O=C(O)c1cc(F)c2nc(N3[C@@H]4CC[C@H]3C[C@@H](OCc3c(-c5ccccc5OC(F)(F)F)noc3C3CC3)C4)sc2c1 | -2.96 °C | -3.83 °C |
| CCOC(=O)c1ccc(CN(Cc2ccc(-c3cccc(S(C)(=O)=O)c3)cc2)S(=O)(=O)c2c(C)cc(C)cc2C)o1 | -3.02 °C | -1.46 °C |
| Cn1cnc(Cn2ccc3ccc(CNCc4[nH]c5ccccc5c4[C@@H]4NC(=O)c5ccc(O)cc54)cc32)c1 | -1.61 °C | 0.85 °C |
| O=S(=O)(Nc1ccc(C(O)(C(F)(F)F)C(F)(F)F)cc1)c1cccs1 | -1.54 °C | 0.59 °C |
| Cc1nn(-c2nc3ccc(Cl)c(Cl)c3[nH]2)c(O)c1C1OC(=O)c2ccccc21 (stereo not given) | -3.79 °C | 0.7 °C |
| CC(C)(C)NC(=O)c1cncn1C1CCN(c2ccc(-c3nnc(C(F)(F)F)o3)cn2)CC1 | -2.22 °C | 0.91 °C |
| CC1(C)CCN(C(=O)C2CN(c3c4c(nc5ccnn35)CCNCC4)C2)C1 | -2.26 °C | 0.72 °C |
| COc1cc(C(N)=O)ccc1Nc1ncc2c(n1)N(CCC(C)C)[C@H](C)C(=O)N2C | 1.82 °C | 1.76 °C |
| CO[C@@H](C)CN1CC[C@]2(C)c3cc(O)ccc3C[C@H]1C2(C)C | -3.01 °C | 1.13 °C |

| Structure (SMILES) | ΔTm (Peregrin (Homo sapiens)) | ΔTm [1] |
| --- | --- | --- |
| N[C@H](C(=O)O)[C@@H]1CC(Cl)=NO1 | -1.19 °C | 0.45 °C |
| C[C@@]1(Cc2ccc(C#N)cc2)C(=O)N(c2cc(Cl)cc(Cl)c2)c2ncc(C(=O)NC3(c4nc(C5CCC5)no4)CC3)n21 | 3.75 °C | 3.32 °C |
| Cc1ccc(-n2nc(C(C)(C)C)cc2NC(=O)Nc2ccc(OCCN3CCOCC3)c3ccccc23)cc1 | -3.09 °C and -0.42 °C | 3.18 °C and 3.23 °C |
| Cc1cn(CCN2CCN(c3ccccc3-c3cc(C#N)cc(C(=O)NCCCN4CCCC4)c3)CC2)c2ccccc12 | 0.42 °C | -1.2 °C |
| C[C@@H]1COCCN1c1cc(=O)n2c(n1)N(Cc1cncc(Cl)c1)[C@H](C(F)(F)F)CC2 | -3.92 °C | 0.57 °C |
| CNc1nc(-c2ccc3c(N)n[nH]c3c2)cc(N2C[C@@H](C(=O)NC3CCCCC3)CC[C@H]2C)n1 | -2.05 °C | 2.13 °C |
| CCC(=O)O[C@@H](OP(=O)(CCCCc1ccccc1)CC(=O)N1C[C@H](C2CCCCC2)C[C@H]1C(=O)O)C(C)C (stereo not given in full) | -1.88 °C | 0.42 °C |
| Oc1c(CN2CCCC2)cc(COCc2ccccc2)c2cccnc12 | -2.08 °C | 0.61 °C |
| CC[C@@H](CO)Nc1nc(Nc2cccc(NC(=O)C(C)(C)C)c2)ncc1F | -1.26 °C | 2.58 °C |
| Cc1nccn1-c1ccc(Sc2cccc(C3(C(N)=O)CCOCC3)c2)cc1 | -1.72 °C | 0.44 °C |
| CC(C)(O)c1cn(-c2ccc(-c3cccc(S(C)(=O)=O)c3)cc2)c(C(C)(C)c2ccccc2Cl)n1 | -1.46 °C | -2.28 °C |
| CC(C)(C)c1cc(NC(=O)c2csc(Nc3ccccn3)n2)no1 | -2.33 °C | 0.72 °C |
| CCCCOc1c(C(=O)c2c(F)cc(C)cc2F)c[nH]c2nncc1-2 | -1.13 °C | 0.71 °C |
| COc1ccc(Br)cc1S(=O)(=O)NC(=O)/C=C/c1cc(Cl)ccc1Cc1ccc2ccccc2c1 | -10.6 °C | 0.7 °C |
| COc1cc(-c2cn(C)c(=O)c3cnccc23)cc(OC)c1CN(C)C | 1.79 °C | 0.44 °C |
| Nc1ncnc2c1c(I)cn2[C@@H]1O[C@H](CO)[C@@H](O)[C@H]1O | -1.79 °C | 3.13 °C |
| CC(C)(C#Cc1ccc(NC(=O)COc2ccccc2C(=O)c2ccccc2)c(Cl)c1)C(=O)O | -4.06 °C | 0.52 °C |
| Cc1cc(-c2cc3ncccc3c(OC[C@H]3CCCNC3)n2)ccc1N(C)C | -1.71 °C | 3.21 °C |
| CC1(C)CCC(CN2CCN(c3ccc(C(=O)NS(=O)(=O)c4ccc(NCC5CCOCC5)c([N+](=O)[O-])c4)c(Oc4cnc5[nH]ccc5c4)c3)CC2)=C(c2ccc(Cl)cc2)C1 | -1.4 °C | 1.11 °C |
| O=C(N[C@H]1CCC[C@H](CO)C1)C1CCN(c2nc3cc(Cl)c(-c4ccc(Cl)cc4)cc3o2)CC1 | -0.52 °C | -8.62 °C |

| Structure (SMILES) | ΔTm (Peregrin (Homo sapiens)) | ΔTm [1] |
| --- | --- | --- |
| C=CC(=O)N1CCC[C@@H](n2nc(-c3ccc(Oc4ccccc4)cc3)c3c(N)ncnc32)C1 | -1.17 °C | -1.1 °C |
| COC(=O)c1ccc2c(c1)NC(=O)/C2=C(\Nc1ccc(-c2nccn2C)cc1)c1ccccc1 | -1.36 °C | 6.61 °C |
| CC(C)N1CCN(Cc2cnc(-c3cc(-c4cccc5[nH]ccc45)cc4[nH]ncc34)o2)CC1 | 0.22 °C | 1.84 °C |
| CCCCCCCC/C=C\CCCCCCCC(=O)NCCO | -0.91 °C | 1.23 °C |
| Cc1csc(S(=O)(=O)N(CC(C)C)c2cc3c(cc2OCc2ccc(C(=O)O)cc2)CCC3)n1 | -3.17 °C | 0.12 °C |
| Cc1cn([C@@H](C)CC#N)c(=O)c2cc(Cn3nc(C(F)F)cc3Cl)nn12 | -1.08 °C | 0.93 °C |
| Cc1nc(Nc2cnn(C3CCNCC3)c2)nc2c1N(C)C(=O)c1cc3ccccc3cc1N2C | -2.69 °C | 1.22 °C |
| Cn1ccc(Cn2cnc(-c3ccc(F)cc3)c2-c2ccnc3[nH]ccc23)n1 | -1.13 °C | 0.54 °C |
| COc1ccccc1S(=O)(=O)Nc1ccc2c(c1)CN(C)C(=O)N2 | 1.73 °C | 0.61 °C |
| Fc1ccc(Cl)cc1-c1nc(Nc2ccncc2)c2nccnc2n1 | -0.76 °C | 0.54 °C |
| Cc1cnc(-c2cnc(NCCNc3ccc(C#N)cn3)nc2-c2ccc(Cl)cc2Cl)[nH]1 | -2.19 °C | 1.41 °C |
| O=C(Cc1ccccc1[N+](=O)[O-])Nc1ccc(-c2ccc(C(O)(C(F)(F)F)C(F)(F)F)cc2F)cc1 | 1.8 °C | 1.47 °C |
| NC(=O)c1sc2nc(N3CCC(NC[C@H](O)c4ccccn4)CC3)cc(C(F)(F)F)c2c1N | -0.86 °C | 1.99 °C |
| COc1cc2ncnc(N[C@H](C)c3ccccc3)c2cc1OC1CCN(S(C)(=O)=O)CC1 | -0.11 °C | 0.38 °C |
| COc1cc(-c2cc3ncccc3c(O[C@H](C)[C@H]3CNC(=O)C3)n2)cc(OC)c1OC | -2.14 °C and -1.33 °C | 1.61 °C and 1.56 °C |
| C=C(F)C(=O)N1CCN(c2nc(OC[C@@H]3CCCN3C)nc3c2CCN(c2cccc4cccc(Cl)c24)C3)C[C@@H]1CC#N | -3.96 °C | 0.12 °C |
| CCN(C(=O)c1cc(F)ccc1Oc1cncnc1N1CC2(CCN(C[C@H]3CC[C@H](NS(=O)(=O)CC)CC3)CC2)C1)C(C)C | -0.92 °C | 0.56 °C |
| CCN(CC)C(=O)C1CN2CCc3cc(OC)c(OC)cc3C2CC1OC(C)=O (stereo not given) | -2.07 °C | 0.43 °C |
| COc1ccc(-c2cc3c(C)nc(N)nc3n([C@H]3CC[C@H](OCCO)CC3)c2=O)cn1 | 0.08 °C | 0.24 °C |
| CN(CCCCCCC1=C(c2cc(F)cc(F)c2)CCCc2cc(O)ccc21)CCCCS(=O)(=O)CCCC(F)(F)F | -1.47 °C | 0.68 °C |
